US12559523B2, “Compositions comprising chemerin analogs and methods of use” (OKYO Pharma Limited, priority 2019, dated 2026)
Non-standard residues stand in square brackets, D forms with d. Residues, ends and D or L forms follow the SMILES beside them. *: point of attachment. PEG8 = NCCOCCOCCOCCOCCOCCOCCOCCOCCC(=O)O; Palmitoyl = CCCCCCCCCCCCCCCC(=O)*; Tic = O=C(O)[C@@H]1Cc2ccccc2CN1; Nle = CCCC[C@H](N)C(=O)O; Nva = CCC[C@H](N)C(=O)O

Columns and labels:
[1] = tested on: conjunctival goblet cells (GC); assay: Conjunctival goblet cell density measurement, dry eye; assay type: in vivo, mouse; details: superior and inferior conjunctiva; FIG. 4 and 6
Protocol: In FIGS. 4 and 6, conjunctival goblet cells (GC) measurement is performed as follows. Enucleated mouse eyes with intact conjunctiva were fixed in 10% formalin and embedded in paraffin. Six-micrometer sections were stained with periodic acid-Schiff reagent.

CD4+ T cells = assay: Immunohistochemistry count of CD4+ T cells in conjunctival epithelium, dry eye; assay type: in vivo, mouse; details: FIG. 3 and 5
Protocol: In FIGS. 3 and 5, immunohistochemistry is used to detect CD4+ T cells. Enucleated mouse eyes with intact conjunctiva were suspended in optimal cutting temperature (OCT) compound and flash frozen in liquid nitrogen. Immunohistochemistry was performed on six micrometer frozen sections to detect and count the number of cells in conjunctival epithelium that stained positively for CD4, a biotinylated secondary antibody and NovaRED peroxidase. Positively stained cells were counted in the conjunctiva using Nikon imaging software.

With `CCCCCCCCCCCCCCCC(=O)NCCOCCOCCOCCOCCOCCOCCOCCOCCC(=O)NCC(=O)NCC(=O)N[C@H](Cc1ccc(O)cc1)C(=O)N[C@@H](Cc1ccccc1)C(=O)N[C@@H](CC(C)C)C(=O)N1CCC[C@H]1C(=O)N[C@H](CO)C(=O)N[C@@H](CCC(N)=O)C(=O)N[C@@H](Cc1ccccc1)C(=O)N[C@H](C)C(=O)N1Cc2ccccc2C[C@H]1C(=O)N[C@@H](CO)C(=O)O` [OK-101, Gly-Gly-dTyr-Phe-Leu-Pro-dSer-Gln-Phe-dAla-Tic-Ser] ({Palmitoyl-PEG8}-GG[dY]FLP[dS]QF[dA][Tic]S-OH) the “dry eye induced loss of goblet cell density” value [1] was “normalized” and the “dry eye induced CD4+ T-cells infiltration” value (CD4+ T cells) was “significantly reduced”.
In the case of `CCCCCCCCCCCCCCCC(=O)NCCOCCOCCOCCOCCOCCOCCOCCOCCC(=O)N[C@@H](CCC)C(=O)NCC(=O)N[C@H](Cc1ccc(O)cc1)C(=O)N[C@@H](Cc1ccccc1)C(=O)N[C@@H](CCCC)C(=O)N1CCC[C@H]1C(=O)N[C@H](CO)C(=O)N[C@@H](CCC(N)=O)C(=O)N[C@@H](Cc1ccccc1)C(=O)N[C@H](C)C(=O)N1Cc2ccccc2C[C@H]1C(=O)N[C@H](C)C(=O)O` [OK-113, NorV-Gly-dTyr-Phe-Nle-Pro-dSer-Gln-Phe-dAla-Tic-dAla] ({Palmitoyl-PEG8}-[Nva]G[dY]F[Nle]P[dS]QF[dA][Tic][dA]-OH), the “dry eye induced loss of goblet cell density” value [1] is reported as “normalized” and the “dry eye induced CD4+ T-cells infiltration” value (CD4+ T cells) is reported as “significantly reduced”.
